Assay results published in ChEMBL document CHEMBL3526082, “Identification of metabolites of ganoderic acid D by ultra-performance liquid chromatography/quadrupole time-of-flight mass spectrometry” (Drug Metab Dispos, 2012).
pIC50: −log10 of the molar value.

Tests used:
[1] = Drug excretion in Sprague-Dawley rat urine assessed as parent compound at 10 mg/kg, po by UPLC/Q-TOF analysis; assay type: ADME, organism-based; design: dose 10 mg/kg, route oral; settings: in vivo
[2] = Drug excretion in Sprague-Dawley rat bile assessed as 3,7,11,15,23-pentaoxolanost-8-en-26-oic acid level at 10 mg/kg, po after 12 hrs by UPLC/Q-TOF analysis; assay type: ADME, organism-based; design: dose 10 mg/kg, route oral; settings: in vivo
Rattus norvegicus = experiment: Drug metabolism in Sprague-Dawley rat plasma assessed as 3,7(S)-dihydroxy-11,15,23-trioxolanost-8-en-26-oic acid level at 10 mg/kg, po by UPLC/Q-TOF analysis; assay type: ADME, organism-based; design: dose 10 mg/kg, route oral; settings: in vivo
[3] = Drug excretion in Sprague-Dawley rat bile assessed as 3,7(S)-dihydroxy-11,15,23-trioxolanost-8-en-26-oic acid level at 10 mg/kg, po after 12 hrs by UPLC/Q-TOF analysis; assay type: ADME, organism-based; design: dose 10 mg/kg, route oral; settings: in vivo
Liver microsome [4] = experiment: Drug metabolism in Sprague-Dawley rat liver microsomes assessed as (6R)-6-((5R,7S,10S,13R,14R,17R)-2,7-dihydroxy-4-(hydroxymethyl)-4,10,13,14-tetramethyl-3,11,15-trioxo-2,3,4,5,6,7,10,11,12,13,14,15,16,17-tetradecahydro-1H-cyclopenta[a]phenanthren-17-yl)-2-methyl-4-oxoheptanoic acid formation at 100 uM after 1 hr by UPLC/Q-TOF analysis; assay type: ADME
Plasma [5] = experiment: Drug level in Sprague-Dawley rat plasma at 10 mg/kg, po by UPLC/Q-TOF analysis; assay type: ADME, organism-based; design: dose 10 mg/kg, route oral; settings: in vivo
[6] = Drug excretion in Sprague-Dawley rat bile assessed as (6R)-6-((5R,7S,10S,13R,14R,17R)-2,7-dihydroxy-4-(hydroxymethyl)-4,10,13,14-tetramethyl-3,11,15-trioxo-2,3,4,5,6,7,10,11,12,13,14,15,16,17-tetradecahydro-1H-cyclopenta[a]phenanthren-17-yl)-2-hydroxy-2-methyl-4-oxoheptanoic acid level at 10 mg/kg, po after 12 hrs by UPLC/Q-TOF analysis; assay type: ADME, organism-based; design: dose 10 mg/kg, route oral; settings: in vivo
[7] = Drug excretion in Sprague-Dawley rat bile assessed as (6R)-6-((5R,7S,10S,13R,14R,17R)-2,7-dihydroxy-4,4,10,13,14-pentamethyl-3,11,15-trioxo-2,3,4,5,6,7,10,11,12,13,14,15,16,17-tetradecahydro-1H-cyclopenta[a]phenanthren-17-yl)-2-hydroxy-2-methyl-4-oxoheptanoic acid level at 10 mg/kg, po after 12 hrs by UPLC/Q-TOF analysis; assay type: ADME, organism-based; design: dose 10 mg/kg, route oral; settings: in vivo
[8] = Drug excretion in Sprague-Dawley rat bile assessed as (6R)-6-((5R,7S,10S,13R,14R)-3,7-dihydroxy-4,4,10,13,14-pentamethyl-11,15-dioxo-2,3,4,5,6,7,10,11,12,13,14,15-dodecahydro-1H-cyclopenta[a]phenanthren-17-yl)-2-methyl-4-oxoheptanoic acid level at 10 mg/kg, po after 12 hrs by UPLC/Q-TOF analysis; assay type: ADME, organism-based; design: dose 10 mg/kg, route oral; settings: in vivo
[9] = Drug excretion in Sprague-Dawley rat bile assessed as (6R)-6-((5R,7S,10S,13R,14R,17R)-2,7-dihydroxy-4-(hydroxymethyl)-4,10,13,14-tetramethyl-3,11,15-trioxo-2,3,4,5,6,7,10,11,12,13,14,15,16,17-tetradecahydro-1H-cyclopenta[a]phenanthren-17-yl)-2-methyl-4-oxoheptanoic acid level at 10 mg/kg, po after 12 hrs by UPLC/Q-TOF analysis; assay type: ADME, organism-based; design: dose 10 mg/kg, route oral; settings: in vivo
[10] = Drug excretion in Sprague-Dawley rat urine assessed as metabolite level at 10 mg/kg, po by UPLC/Q-TOF analysis; assay type: ADME, organism-based; design: dose 10 mg/kg, route oral; settings: in vivo
[11] = Drug excretion in Sprague-Dawley rat bile assessed as (6R)-2-hydroxy-6-((5R,7S,10S,13R,14R,17R)-7-hydroxy-4,4,10,13,14-pentamethyl-3,11,15-trioxo-2,3,4,5,6,7,10,11,12,13,14,15,16,17-tetradecahydro-1H-cyclopenta[a]phenanthren-17-yl)-2-methyl-4-oxoheptanoic acid level at 10 mg/kg, po after 12 hrs by UPLC/Q-TOF analysis; assay type: ADME, organism-based; design: dose 10 mg/kg, route oral; settings: in vivo
[12] = Drug excretion in Sprague-Dawley rat bile assessed as (6R)-2-hydroxy-6-((5R,7S,10S,13R,14R,17R)-7-hydroxy-4-(hydroxymethyl)-4,10,13,14-tetramethyl-3,11,15-trioxo-2,3,4,5,6,7,10,11,12,13,14,15,16,17-tetradecahydro-1H-cyclopenta[a]phenanthren-17-yl)-2-methyl-4-oxoheptanoic acid level at 10 mg/kg, po after 12 hrs by UPLC/Q-TOF analysis; assay type: ADME, organism-based; design: dose 10 mg/kg, route oral; settings: in vivo
[13] = Drug excretion in Sprague-Dawley rat bile assessed as (6R)-6-((5R,7S,10S,13R,14R)-7-hydroxy-4-(hydroxymethyl)-4,10,13,14-tetramethyl-3,11,15-trioxo-2,3,4,5,6,7,10,11,12,13,14,15-dodecahydro-1H-cyclopenta[a]phenanthren-17-yl)-2-methyl-4-oxoheptanoic acid level at 10 mg/kg, po after 12 hrs by UPLC/Q-TOF analysis; assay type: ADME, organism-based; design: dose 10 mg/kg, route oral; settings: in vivo
[14] = Drug excretion in Sprague-Dawley rat bile assessed as 7(S) -hydroxy-11,15,23-trioxo-3-sulfooxylanost-8-en-26-oic acid level at 10 mg/kg, po after 12 hrs by UPLC/Q-TOF analysis; assay type: ADME, organism-based; design: dose 10 mg/kg, route oral; settings: in vivo
Liver microsome [15] = experiment: Drug metabolism in Sprague-Dawley rat liver microsomes assessed as (6R)-6-((5R,7S,10S,13R,14R,17R)-2,7-dihydroxy-4,4,10,13,14-pentamethyl-3,11,15-trioxo-2,3,4,5,6,7,10,11,12,13,14,15,16,17-tetradecahydro-1H-cyclopenta[a]phenanthren-17-yl)-2-methyl-4-oxoheptanoic acid formation at 100 uM after 1 hr by UPLC/Q-TOF analysis; assay type: ADME
Plasma [16] = experiment: Drug level in Sprague-Dawley rat plasma treated with ganoderic acid D at 10 mg/kg, po by UPLC/Q-TOF analysis; assay type: ADME, organism-based; design: dose 10 mg/kg, route oral; settings: in vivo
HeLa = experiment: Antiproliferative activity against human HeLa cells assessed as inhibition of cell proliferation after 48 hrs; assay type: functional, cell-based
[17] = Drug excretion in Sprague-Dawley rat bile assessed as (6R)-6-((5R,7S,10S,13R,14R,17R)-2,7-dihydroxy-4,4,10,13,14-pentamethyl-3,11,15-trioxo-2,3,4,5,6,7,10,11,12,13,14,15,16,17-tetradecahydro-1H-cyclopenta[a]phenanthren-17-yl)-2-methyl-4-oxoheptanoic acid level at 10 mg/kg, po after 12 hrs by UPLC/Q-TOF analysis; assay type: ADME, organism-based; design: dose 10 mg/kg, route oral; settings: in vivo
[18] = Drug excretion in Sprague-Dawley rat bile assessed as (6R)-6-((5R,7S,10S,13R,14R,17R)-2,7-dihydroxy-4,4,10,13,14-pentamethyl-3,11,15-trioxo-2,3,4,5,6,7,10,11,12,13,14,15,16,17-tetradecahydro-1H-cyclopenta[a]phenanthren-17-yl)-2-(hydroxymethyl)-4-oxoheptanoic acid level at 10 mg/kg, po after 12 hrs by UPLC/Q-TOF analysis; assay type: ADME, organism-based; design: dose 10 mg/kg, route oral; settings: in vivo
Liver microsome [19] = experiment: Drug metabolism in Sprague-Dawley rat liver microsomes assessed as 3,7(S)-dihydroxy-11,15,23-trioxolanost-8-en-26-oic acid formation at 100 uM after 1 hr by UPLC/Q-TOF analysis; assay type: ADME
[20] = Drug excretion in Sprague-Dawley rat bile assessed as (6R)-6-((5R,7S,10S,13R,14R,17R)-7-hydroxy-4,4,10,13,14-pentamethyl-3,11,15-trioxo-2,3,4,5,6,7,10,11,12,13,14,15,16,17-tetradecahydro-1H-cyclopenta[a]phenanthren-17-yl)-2-(hydroxymethyl)-4-oxoheptanoic acid level at 10 mg/kg, po after 12 hrs by UPLC/Q-TOF analysis; assay type: ADME, organism-based; design: dose 10 mg/kg, route oral; settings: in vivo
[21] = Retention time of the compound in Sprague-Dawley rat bile by UPLC/Q-TOF analysis; assay type: ADME
[22] = Drug excretion in Sprague-Dawley rat bile treated with ganoderic acid D at 10 mg/kg, po after 12 hrs by UPLC/Q-TOF analysis; assay type: ADME, organism-based; design: dose 10 mg/kg, route oral; settings: in vivo
Liver microsome [23] = experiment: Drug level in Sprague-Dawley rat liver microsomes assessed as compound formation treated with ganoderic acid D at 100 uM after 1 hr by UPLC/Q-TOF analysis; assay type: ADME

CC(CC(=O)CC(C)[C@H]1CC(=O)[C@@]2(C)C3=C(C(=O)C[C@]12C)[C@@]1(C)CCC(=O)C(C)(C)[C@@H]1C[C@@H]3O)C(=O)O (some centres not stated)
Drug excretion [1]: metabolite_not_detected | Drug excretion [2]: metabolite_detected | Drug metabolism (Rattus norvegicus): metabolite_detected | Drug excretion [3]: metabolite_detected | Drug metabolism (Liver microsome [4]): metabolite_detected | Drug uptake (Plasma [5]): Active | Drug excretion [6]: metabolite_detected | Drug excretion [7]: metabolite_detected | Drug excretion [8]: metabolite_detected | Drug excretion [9]: metabolite_detected | Drug excretion [10]: metabolite_not_detected | Drug excretion [11]: metabolite_detected | Drug excretion [12]: metabolite_detected | Drug excretion [13]: metabolite_detected | Drug excretion [14]: metabolite_detected | Drug metabolism (Liver microsome [15]): metabolite_detected | Drug metabolism (Plasma [16]): metabolite_detected | pIC50 (HeLa): 4.76 | Drug excretion [17]: metabolite_detected | Drug excretion [18]: metabolite_detected | Drug metabolism (Liver microsome [19]): metabolite_detected | Drug excretion [20]: metabolite_detected | Retention_time [21]: 11.3 min

CC(CC(=O)CC(C)[C@H]1CC(=O)[C@@]2(C)C3=C(C(=O)C[C@]12C)[C@@]1(C)CCC(O)C(C)(C)[C@@H]1C[C@@H]3O)C(=O)O (some centres not stated)
Drug excretion [22]: metabolite_detected | Drug metabolism (Liver microsome [23]): metabolite_detected | Retention_time [21]: 9.9 min

CC(CC(=O)CC(C)[C@H]1CC(=O)[C@@]2(C)C3=C(C(=O)C[C@]12C)[C@@]1(C)CCC(=O)C(C)(C)[C@@H]1CC3=O)C(=O)O (some centres not stated)
Drug excretion [22]: metabolite_detected | Retention_time [21]: 11.5 min

CC(CC(=O)CC(C)C1=CC(=O)[C@@]2(C)C3=C(C(=O)C[C@]12C)[C@@]1(C)CCC(=O)C(C)(C)[C@@H]1C[C@@H]3O)C(=O)O (some centres not stated)
Drug excretion [22]: metabolite_detected | Retention_time [21]: 11.9 min

CC(CC(=O)CC(C)(O)C(=O)O)[C@H]1CC(=O)[C@@]2(C)C3=C(C(=O)C[C@]12C)[C@@]1(C)CCC(=O)C(C)(C)[C@@H]1C[C@@H]3O (some centres not stated)
Drug excretion [22]: metabolite_detected | Retention_time [21]: 10 min

CC(CC(=O)CC(CO)C(=O)O)[C@H]1CC(=O)[C@@]2(C)C3=C(C(=O)C[C@]12C)[C@@]1(C)CCC(=O)C(C)(C)[C@@H]1C[C@@H]3O (some centres not stated)
Drug excretion [22]: metabolite_detected | Retention_time [21]: 9.8 min

CC(CC(=O)CC(C)[C@H]1CC(=O)[C@@]2(C)C3=C(C(=O)C[C@]12C)[C@@]1(C)CC(O)C(=O)C(C)(C)[C@@H]1C[C@@H]3O)C(=O)O (some centres not stated)
Drug excretion [22]: metabolite_detected | Drug metabolism (Liver microsome [23]): metabolite_detected | Retention_time [21]: 9.5 min

CC(CC(=O)CC(C)[C@H]1CC(=O)[C@@]2(C)C3=C(C(=O)C[C@]12C)[C@@]1(C)CCC(=O)C(C)(CO)[C@@H]1C[C@@H]3O)C(=O)O (some centres not stated)
Drug excretion [22]: metabolite_detected | Retention_time [21]: 9.2 min

CC(CC(=O)CC(C)(O)C(=O)O)[C@H]1CC(=O)[C@@]2(C)C3=C(C(=O)C[C@]12C)[C@@]1(C)CC(O)C(=O)C(C)(C)[C@@H]1C[C@@H]3O (some centres not stated)
Drug excretion [22]: metabolite_detected | Retention_time [21]: 8.2 min

CC(CC(=O)CC(CO)C(=O)O)[C@H]1CC(=O)[C@@]2(C)C3=C(C(=O)C[C@]12C)[C@@]1(C)CC(O)C(=O)C(C)(C)[C@@H]1C[C@@H]3O (some centres not stated)
Drug excretion [22]: metabolite_detected | Retention_time [21]: 8 min

CC(CC(=O)CC(C)(O)C(=O)O)[C@H]1CC(=O)[C@@]2(C)C3=C(C(=O)C[C@]12C)[C@@]1(C)CCC(=O)C(C)(CO)[C@@H]1C[C@@H]3O (some centres not stated)
Drug excretion [22]: metabolite_detected | Retention_time [21]: 7.5 min

CC(CC(=O)CC(C)[C@H]1CC(=O)[C@@]2(C)C3=C(C(=O)C[C@]12C)[C@@]1(C)CC(O)C(=O)C(C)(CO)[C@@H]1C[C@@H]3O)C(=O)O (some centres not stated)
Drug excretion [22]: metabolite_detected | Drug metabolism (Liver microsome [23]): metabolite_detected | Retention_time [21]: 7.3 min

CC(CC(=O)CC(C)(O)C(=O)O)[C@H]1CC(=O)[C@@]2(C)C3=C(C(=O)C[C@]12C)[C@@]1(C)CC(O)C(=O)C(C)(CO)[C@@H]1C[C@@H]3O (some centres not stated)
Drug excretion [22]: metabolite_detected | Retention_time [21]: 5.9 min

CC(CC(=O)CC(C)[C@H]1CC(=O)[C@@]2(C)C3=C(C(=O)C[C@]12C)[C@@]1(C)CCC(OS(=O)(=O)O)C(C)(C)[C@@H]1C[C@@H]3O)C(=O)O (some centres not stated)
Drug excretion [22]: metabolite_detected | Retention_time [21]: 8.5 min
